We go through two molecules from PubChem BioAssay AID1918932 (Molecular Pharmacology Branch, DTP, NCI, 2023).

pIC50: −log10 of the molar value. “And” between values parts separate entries of the source, which are not always exact repeats. Equal values may be shown once.

For this experiment, the system named is 171881-019-R-J1-PDC complex spheroid viability. As to the kind of experiment: Anticancer human tumor 171881-019-R-J1-PDC patient-derived invasive breast carcinoma cell line growth inhibition. The note with it: for viability, T/C: stronger effect = lower value. An excerpt:
Multicellular complex tumor spheroid response to LSD1 Inhibitor Iadademstat in combination with a variety of drugs and investigational agents in selected tumor cell lines
The current study was undertaken to assess response to LSD1 inhibitors in combination with standard-of-care drugs and investigational agents in solid tumor complex spheroid models as well as in the K-562 leukemia. Complex spheroids include a stromal component modeled by human endothelial cells (HUVEC) and fibroblasts modeled by human mesenchymal stem cells (MSCs). The concentration ranges selected for each drug and investigational agent were based upon clinically achievable concentrations if the clinical Cmax of the agent was known.
Compounds. The drugs and investigational agents used in this study are listed on Table 1. All of the agents used, including staurosporine (NSC755774) and gemcitabine (NSC613327), were obtained from the Developmental Therapeutics Program, NCI. FDA-approved anticancer drugs are available from the NCI at http://dtp.nci.nih.gov/branches/dscb/oncology_drugset_explanation.html. Drugs and investigational agents were >95% pure by proton nuclear magnetic resonance (NMR) and liquid chromatography/mass spectrometry (LC/MS). Stock solutions were prepared at 400x in DMSO, stored at -70 degrees C, and diluted in fresh medium prior to their use. The final concentration of DMSO in cell culture wells never exceeded 0.25% (v/v). The FDA-approved anticancer drug set is available from the Developmental Therapeutics Program at https://dtp.cancer.gov/organization/dscb/obtaining/available_plates.htm. All drugs and investigational agents were tested over a range starting from a high concentration at or near the clinical Cmax and decreasing in half-log increments. If the clinical Cmax for an agent had not been determined, the highest concentration tested was 10 microM.
Cell Lines. The patient-derived cancer cell (PDC) lines: 292921-168-R-J2-PDC, K24384-001-R-PDC, and 521955-158-R2-J5-PDC pancreatic carcinomas, 556581-035-R-J1 ovarian carcinoma, 324938-238-R-J1-PDC, 855422-203-R-J1-PDC and 883617-216-R-J1-PDC urothelial bladder carcinomas, 743489-274-T-PDC renal cell carcinoma, 138582-R-J1 Merkel cell tumor, K60290-347-R-J1 and K57222-313-R-J1-PDC glioblastomas, 653999-131-R-J2-PDC, LG0703-F948-PDC, and 349418-098-R-PDC non-small cell lung carcinomas, 885512-296-R-J2-PDC, 171881-019-R-J1-PDC breast carcinomas and 186277-243-T-J2-PDC and 233499-124-R-J2-PDC colon carcinomas were obtained from the NCI Patient-Derived Models Repository (PDMR, https://pdmr.cancer.gov). The established cell lines NCI/ADR-RES (RRID:CVCL_14520 and OVCAR-5 (RRID:CVCL_1628) ovarian carcinomas, 786-O (RRID:CVCL_1051) and A498 (RRID:CVCL_A498) renal cell carcinoma, NCI-H211 (ATCC, cat. CRL-5824; RRID:CVCL_1529), NCI-H196 (ATCC, cat. CRL-5823, RRID:CVCL_1509), SW 1271 (ATCC, cat. CRL-2177, RRID:CVCL_1716) and NCI-H1876 (ATCC, cat. CRL-5902, RRID:CVCL_1503) small cell lung carcinomas, MDA-MB-231 (RRID:CVCL_0062) and MDA-MB-468 (RRID:CVCL_0419)breast carcinomas (10-12). Pooled donor human umbilical vein endothelial cells (HUVEC, Lonza, cat. CC-2519) and human mesenchymal stem cells (hMSC, Lonza, cat. PT-2501) were purchased from Lonza (Walkersville, MD).
Cell Culture. All cells were maintained in an incubator at 37 degrees C and 5% CO2 with 95% humidity. The PDC lines were cultured according to standard operating procedures established by the NCI PDMR (https://pdmr.cancer.gov). Briefly all PDCs were thawed and cultured in Matrigel-coated flasks prepared with a working solution of 1X Ham's F-12 nutrient mix, without supplementation (Invitrogen, Waltham, MA, cat. 11765054), 100 U/mL penicillin-streptomycin (Invitrogen, cat. 15140122), and 2.5% Matrigel (Corning Inc., Corning, NY, cat. 354248) for the first three passages. […]
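Also: spheroids exposed to agents for 7 days after 3 days growth.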

In the case of `COc1cc(C2c3cc4c(cc3C(OC3OC5COC(C)OC5C(O)C3O)C3COC(=O)C23)OCO4)cc(OC)c1O` (configuration not stated), the viability, T/C (as a rule, the result in the treated group divided by that in the control group, in per cent) is, setting by setting: (compound 0.00949 µM) 97.7% and 100%; (compound 0.03 µM) 121% and 90%; (compound 0.0949 µM) 78.5% and 72.5%; (compound 0.3 µM) 51.8% and 64.3%; (compound 0.949 µM) 32.6% and 49.3%; (compound 3 µM) 17.2% and 29.7%. For the same molecule, under “curve of compound”, the pIC50 (commonly the IC50 on a negative log10 scale, so that one unit is a factor of ten) was 6.50 and 6.11.
With `NS(=O)(=O)OCC1CC(n2ccc3c(NC4CCc5ccccc54)ncnc32)CC1O` (configuration not stated) + NC1CC1c1ccc(-c2cccc(O)c2)cc1, the pIC50 is 7.99 (curve of first compound, second compound 0.1 µM); 7.95 (curve of first compound, second compound 0.316 µM); 8.00 (curve of first compound, second compound 1 µM); 7.89 (curve of first compound, second compound 3.16 µM); more than 8.02 (curve of first compound, second compound 10 µM). Moreover, the viability, T/C reads like this: (second compound 0.1 µM, first compound 0.00949 µM) 51.1%; (second compound 0.1 µM, first compound 0.03 µM) 36.4%; (second compound 0.1 µM, first compound 0.0949 µM) 26.7%; (second compound 0.1 µM, first compound 0.3 µM) 27.4%; (second compound 0.1 µM, first compound 0.949 µM) 27.1%; (second compound 0.1 µM, first compound 3 µM) 23.3%. For the same molecule, the viability, T/C by setting is: (second compound 0.316 µM, first compound 0.00949 µM) 52.9%; (second compound 0.316 µM, first compound 0.03 µM) 36.4%; (second compound 0.316 µM, first compound 0.0949 µM) 31.3%; (second compound 0.316 µM, first compound 0.3 µM) 28.1%; (second compound 0.316 µM, first compound 0.949 µM) 31.8%; (second compound 0.316 µM, first compound 3 µM) 21.4%. The viability, T/C is, setting by setting: (second compound 1 µM, first compound 0.00949 µM) 51.3%; (second compound 1 µM, first compound 0.03 µM) 27.4%; (second compound 1 µM, first compound 0.0949 µM) 27.8%; (second compound 1 µM, first compound 0.3 µM) 30%; (second compound 1 µM, first compound 0.949 µM) 27.5%; (second compound 1 µM, first compound 3 µM) 21.9%. In addition, the viability, T/C was 56.5% (second compound 3.16 µM, first compound 0.00949 µM); 31.2% (second compound 3.16 µM, first compound 0.03 µM); 26% (second compound 3.16 µM, first compound 0.0949 µM); 24.1% (second compound 3.16 µM, first compound 0.3 µM); 26.9% (second compound 3.16 µM, first compound 0.949 µM); 21.1% (second compound 3.16 µM, first compound 3 µM). Further, the viability, T/C was 45.1% (second compound 10 µM, first compound 0.00949 µM); 30.6% (second compound 10 µM, first compound 0.03 µM); 27.1% (second compound 10 µM, first compound 0.0949 µM); 27.6% (second compound 10 µM, first compound 0.3 µM); 25.4% (second compound 10 µM, first compound 0.949 µM); 19.5% (second compound 10 µM, first compound 3 µM).
